Reference: US9676771B2, “Compounds for inhibiting drug-resistant strains of HIV-1 integrase” (priority 2013, dated 2017)
Where two headings read alike, the source gives them in different places.

Legend:
HIV-1 integrase = HIV-1 integrase (Human immunodeficiency virus type 1 group M subtype B, UniProt P12497); assay: biochemical; format: biochemical
Description: In Vitro Integrase Assay.
Integrase reactions were carried out by adding drugs or an equivalent volume of 100% dimethyl sulfoxide (DMSO; used as the drug solvent) to a mixture of 20 nM DNA and 400 nM integrase in 50 mM morpholinepropanesulfonic acid (pH 7.2), 7.5 mM MgCl2, and 14 mM 2-mercaptoethanol. Reactions were performed at 37° C. for 2 h and quenched by the addition of an equal volume of loading buffer (formamide containing 1% sodium dodecyl sulfate, 0.25% bromophenol blue, and xylene cyanol). […] Dried gels were visualized using a Typhoon 8600 (GE Healthcare, Piscataway, N.J.). Densitometric analyses were performed using ImageQuant 5.1 software from GE Healthcare.

in vitro = format: cell-based, human; details: human, 50% reduction in the level of ATP in HOS cells
Description: Cellular Cytotoxicity Assay.
On the day of the screen, cells were treated with compounds at the appropriate concentration range chosen and incubated at 37° C. for 48 hrs. Cytotoxicity was measured by monitoring ATP levels via a luciferase reporter assay. Cells were lysed in 50 μL cell lysis buffer (PerkinElmer, Waltham, Mass.) and shaken at 700 rpm at room temperature for 5 mins After the addition of 50 μL of ATPlite buffer (PerkinElmer) directly onto the lysed cells and shaking at 700 rpm at room temperature for 5 mins, ATP levels were monitored by measuring luciferase activity using a microplate reader. Activity was normalized to cytotoxicity in the absence of target compounds. KaleidaGraph (Synergy Software, Reading, Pa.) was used to perform regression analysis on the data. CC50 values were determined from the fit model.

[1] = test system: HIV-1 constructs containing wild-type IN; assay: microbe, parasite or virus in culture; format: cell-based; details: for EC50: Human immunodeficiency virus 1
Description: (§1) Single-Round HIV-1 Infectivity Assay.
(§2) Human embryonyl kidney cell culture cell line 293 was acquired from the American type Culture Collection (ATCC).
(§3) The virus-containing supernatants were then harvested, clarified by low-speed centrifugation, filtrated, and diluted for preparation in infection assays. […] Activity was normalized to infectivity in the absence of target compounds. KaleidaGraph (Synergy Software, Reading, Pa.) was used to perform regression analysis on the data. EC50 values were determined from the fit model.

[2] = test system: HIV-1 constructs containing mutant IN G140S-Q148H; assay: microbe, parasite or virus in culture; format: cell-based; details: for EC50: Human immunodeficiency virus 1
Description: as §1, §2, §3
(§4) pNLNgoMIVR^−ΔEnv.LUC has been described previously (Zhao et al. 2008). The integrase codon reading frame was removed from pNLNgoMIVR^−ΔEnv LUC (between KpnI and SalI sites) and placed between the KpnI and SalI sites of pBluescript II KS+. Using that construct as the wild-type template, we prepared the following HIV-1 Integrase-resistant mutants via the QuikChange II XL (Stratagene, La Jolla, Calif.) site-directed mutagenesis protocol: H51Y, T66I, E92Q, G118R, Y143R, Q148H, Q148K, N155H, R263K, G140S+Q148H, G140A+Q148K, E138K+Q148K, and H51Y+R263K. The following sense with cognate antisense (not shown) oligonucleotides (Integrated DNA Technologies, Coralville, Iowa) were used in the mutagenesis: H51Y, 5′-[…]-3; T66I, 5′-[…]-3′; E92Q, 5′-[…]-3′; G118R, 5′-[…]-3′; E138K, 5′-[…]-3; G140A, 5′-[…]-3; G140S, 5′-[…]-3′; Y143R, 5′-[…]-3′; Q148H, 5′-[…]-3′; Q148K, 5′-[…]-3; N155H, 5′-[…]-3′; R263K 5′-[…]-3′. The double mutation G140S+Q148H was constructed by using the previously generated Q148H mutant and the appropriate oligonucleotide for the 2nd mutation, G140S. The double mutation G140A+Q148K was made by using the Q148K mutant and the appropriate oligonucleotide for the 2nd mutation, G140A. The double mutation E138K+Q148K was made by using the Q148K mutant and the appropriate oligonucleotide for the 2nd mutation, E138K. The double mutation H51Y+R263K was constructed by using the previously generated H51Y mutant and the appropriate oligonucleotides for the 2nd mutation, R263K. The DNA sequence of each construct was verified independently by DNA sequence determination. […] These DNA sequences were additionally checked independently by DNA sequence determination.

[3] = test system: HIV-1 constructs containing mutant IN N155H; assay: microbe, parasite or virus in culture; format: cell-based; details: for EC50: Human immunodeficiency virus 1
Description: as §1, §2, §3, §4

[4] = test system: HIV-1 constructs containing mutant IN Y143R; assay: microbe, parasite or virus in culture; format: cell-based; details: for EC50: Human immunodeficiency virus 1
Description: as §1, §2, §3, §4

[5] = Table 7, 3′-processing, read-out: IC50 (μM) 3′-P
[6] = Table 7, strand transfer, read-out: IC50 (μM) ST
[7] = Table 8, WT IN, read-out: EC50 (nM, WT)
[8] = Table 8, read-out: EC50 (nM, IN mutants) G140S/Q148H
[9] = Table 8, read-out: EC50 (nM, IN mutants) N155H
[10] = Table 8, read-out: EC50 (nM, IN mutants) Y143R
[11] = Table 1, 3′-processing, read-out: IC50 Values 3′-Processing
[12] = Table 1, strand transfer, read-out: IC50 Values Strand transfer
[13] = Table 2, cells infected with lentiviral vector harboring WT IN, read-out: EC50
[14] = Table 3, WT IN, read-out: EC50 (nM, WT)
[15] = Table 3, G140S-Q148H double mutant, read-out: EC50 (nM, IN Mutants) SH
[16] = Table 3, read-out: EC50 (nM, IN Mutants) N155H
[17] = Table 3, read-out: EC50 (nM, IN Mutants) Y143R
[18] = Table 4, 3′-processing, read-out: IC50 (3^+-Processing)
[19] = Table 4, strand transfer, read-out: IC50 (Strand Transfer)

Structure (SMILES)	IC50 (HIV-1 integrase; [5])	IC50 (HIV-1 integrase; [6])	CC50 (in vitro; Table 8)	EC50 [1, 7]	EC50 [3, 9]	EC50 [4, 10]	IC50 (HIV-1 integrase; [11])	IC50 (HIV-1 integrase; [12])	CC50 (in vitro; Table 3)	Si (selectivity index) [1]	EC50 [1, 14]	EC50 [3, 16]	EC50 [4, 17]	also measured
Nc1c(C(=O)NCc2ccc(F)cc2F)c(=O)n(O)c2ncc(-c3ccccc3)cc12 [XZ420, 4-Amino-N-(2,4-difluorobenzyl)-1-hydroxy-2-oxo-6-phenyl-1,2-dihydro-1,8-naphthyridine-3-carboxamide]	17.9 ± 1.6 µM	0.0016 ± 0.0003 µM	184000 nM	3.4 ± 0.7 nM	18.7 nM	3.7 nM	–	–	–	–	–	–	–	EC50 [2, 8]: 39.6 nM
CN(C)CCCc1cnc2c(c1)c(N)c(C(=O)NCc1ccc(F)cc1F)c(=O)n2O [XZ425, 4-Amino-N-(2,4-difluorobenzyl)-6-(3-(dimethylamino)propyl)-1-hydroxy-2-oxo-1,2-dihydro-1,8-naphthyridine-3-carboxamide]	3 ± 0.4 µM	0.0143 ± 0.0022 µM	5000 nM	6.07 nM	29.4 nM	7 ± 2.3 nM	–	–	–	–	–	–	–	EC50 [2, 8]: 31.7 nM
O=C(NCc1ccc(F)c(F)c1)c1c(O)c2cccnc2n(O)c1=O [XZ367, N-(3,4-difluorobenzyl)-1,4-dihydroxy-2-oxo-1,2-dihydro-1,8-naphthyridine-3-carboxamide]	–	–	–	–	–	–	3.6 ± 0.6 µM	0.04 ± 0.01 µM	192000 ± 19000 nM	9,585	20 ± 6.2 nM	189 ± 70.1 nM	44.5 ± 12.2 nM	CC50 (in vitro; Table 2): 192000 nM; SI [1]: 9,585; EC50 [1, 13]: 20 nM; Integrase Mutants SH (G140S-Q148H), fold-change in EC50 relative to WT [2]: 25 x; EC50 [2, 15]: 507 ± 125 nM; Integrase Mutants N155H, fold-change in EC50 relative to WT [3]: 9 x; Integrase Mutants Y143R, fold-change in EC50 relative to WT [4]: 2 x
O=C(NCc1ccc(F)c(Cl)c1)c1c(O)c2cccnc2n(O)c1=O [XZ365, N-(3-chloro-4-fluorobenzyl)-1,4-dihydroxy-2-oxo-1,2-dihydro-1,8-naphthyridine-3-carboxamide]	–	–	–	–	–	–	4.7 ± 0.7 µM	0.027 ± 0.006 µM	102000 ± 17800 nM	2,920	34.9 ± 12.3 nM	148 ± 8.3 nM	53.6 ± 9.2 nM	CC50 (in vitro; Table 2): 102000 nM; SI [1]: 2,911; EC50 [1, 13]: 35 nM; Integrase Mutants SH (G140S-Q148H), fold-change in EC50 relative to WT [2]: 14 x; EC50 [2, 15]: 489 ± 61.8 nM; Integrase Mutants N155H, fold-change in EC50 relative to WT [3]: 4 x; Integrase Mutants Y143R, fold-change in EC50 relative to WT [4]: 2 x
Nc1c(C(=O)NCc2ccc(F)cc2F)c(=O)n(O)c2ncc(CCCC3CCCCC3)cc12 [XZ428, 4-Amino-6-(3-cyclohexylpropyl)-N-(2,4-difluorobenzyl)-1-hydroxy-2-oxo-1,2-dihydro-1,8-naphthyridine-3-carboxamide]	289 ± 49 µM	3.28 ± 0.468 µM	27400 nM	53.4 nM	146 nM	112 nM	–	–	–	–	–	–	–	–
Nc1c(C(=O)NCc2ccc(F)cc2F)c(=O)n(O)c2ncc(CCc3ccccc3)cc12 [XZ430, 4-Amino-N-(2,4-difluorobenzyl)-1-hydroxy-2-oxo-6-phenethyl-1,2-dihydro-1,8-naphthyridine-3-carboxamide]	48 ± 4 µM	0.0145 ± 0.0034 µM	17600 nM	5.6 nM	21.1 nM	5.5 nM	–	–	–	–	–	–	–	EC50 [2, 8]: 140 nM
O=C(NCc1ccc(F)c(Cl)c1)c1cc2cccnc2n(O)c1=O [XZ391, N-(3-chloro-4-fluorobenzyl)-1-hydroxy-2-oxo-1,2-dihydro-1,8-naphthyridine-3-carboxamide]	–	–	–	–	–	–	9.4 ± 1.5 µM	0.014 ± 0.003 µM	> 250000 nM	>6,667	37.5 ± 14.5 nM	90.3 ± 5.6 nM	33.9 ± 5.5 nM	–
O=C(NCc1ccc(F)cc1)c1cc2cccnc2n(O)c1=O [XZ393, N-(4-fluorobenzyl)-1-hydroxy-2-oxo-1,2-dihydro-1,8-naphthyridine-3-carboxamide]	–	–	–	–	–	–	8.9 ± 1 µM	0.016 ± 0.003 µM	> 250000 nM	–	25.1 ± 9.4 nM	268 ± 89 nM	24.1 ± 5.3 nM	Si (selectivity index) ([1]; Table 3, ratio of CC50 to EC50): >9,960
O=C(NCc1ccc(F)cc1F)c1c(Nc2ccccc2)c2cccnc2n(O)c1=O [XZ377, N-(2,4-difluorobenzyl)-1-hydroxy-2-oxo-4-(phenylamino)-1,2-dihydro-1,8-naphthyridine-3-carboxamide]	–	–	–	–	–	–	–	–	> 250000 nM	>17,857	14.2 ± 1.9 nM	110 ± 17.2 nM	24.9 ± 6.4 nM	IC50 (HIV-1 integrase; read-out: IC50 (3^+-Processing)): 6.9 ± 1.1 µM; IC50 (HIV-1 integrase; read-out: IC50 (Strand Transfer)): 0.018 ± 0.006 µM
COC(=O)CNc1c(C(=O)NCc2ccc(F)cc2F)c(=O)n(O)c2nc(OC)ccc12 [XZ407, methyl 2-((3-((2,4-difluorobenzyl)carbamoyl)-1-hydroxy-7-methoxy-2-oxo-1,2-dihydro-1,8-naphthyridin-4-yl)amino)acetate]	–	–	–	–	–	–	–	–	–	–	–	–	–	IC50 (HIV-1 integrase; [18]): 20 ± 2 µM; IC50 (HIV-1 integrase; [19]): 0.042 ± 0.005 µM; CC50 (in vitro; Table 5): 11700 ± 3100 nM; EC50 ([1]; Table 5, WT IN, read-out: EC50 (nM, WT)): 32 ± 13 nM; SI ([1]; Table 5, ratio of CC50 to EC50): 366; EC50 ([3]; Table 5, read-out: EC50 (nM, IN Mutants) N155H): 31300 ± 320 nM; EC50 ([4]; Table 5, read-out: EC50 (nM, IN Mutants) Y143R): 51.5 ± 12.6 nM
O=C(NCc1ccc(F)c(F)c1)c1cc2cccnc2n(O)c1=O [XZ392, N-(3,4-difluorobenzyl)-1-hydroxy-2-oxo-1,2-dihydro-1,8-naphthyridine-3-carboxamide]	–	–	–	–	–	–	13.6 ± 1.8 µM	0.017 ± 0.003 µM	> 250000 nM	>4,058	61.6 ± 13.8 nM	2200 ± 61 nM	39.7 ± 12.5 nM	–
COC(=O)[C@@H](C)Nc1c(C(=O)NCc2ccc(F)cc2F)c(=O)n(O)c2ncccc12 [XZ395, (R)-methyl 2-((3-((2,4-difluorobenzyl)carbamoyl)-1-hydroxy-2-oxo-1,2-dihydro-1,8-naphthyridin-4-yl)amino)propanoat]	–	–	–	–	–	–	–	–	> 250000 nM	–	11.3 ± 4.7 nM	–	8.1 ± 1.7 nM	EC50 [2, 15]: 89.3 ± 26.3 nM
Nc1ccc(-c2ccc(Nc3c(C(=O)NCc4ccc(F)cc4F)c(=O)n(O)c4ncccc34)cc2)cc1 [XZ387, 4-((4′-amino-[1,1′-biphenyl]-4-yl)amino)-N-(2,4-difluorobenzyl)-1-hydroxy-2-oxo-1,2-dihydro-1,8-naphthyridine-3-carboxamide]	–	–	–	–	–	–	–	–	> 250000 nM	–	6.3 ± 2.4 nM	423 ± 168 nM	102 ± 1.4 nM	IC50 (HIV-1 integrase; [18]): 80 ± 11 µM; IC50 (HIV-1 integrase; [19]): 0.13 ± 0.02 µM; Si (selectivity index) ([1]; Table 3, ratio of CC50 to EC50): >25,000
